Patent US7517884B2 (Kalypsys Inc., priority 1998, dated 2009)

Tested on: Diet-Induced Obesity (DIO) in Mice
Test: Model of Diet-Induced Obesity (DIO) in mice, dose ranging study
Assay type: in vivo, C57B1/6j mice
Details: HFD, 1.5 mg/kg BID
Description: Evaluation of Pharmacological Efficacy of a Compound of the Invention in a Model of Diet-Induced Obesity (DIO) in Mice
Metabolic syndrome in humans is characterized by abdominal obesity, high triglycerides, impaired fasting glucose and hyperinsulinemia. In the DIO model, mice are fed high fat diet (HFD, Research diet D12492, Research Diet, NJ) diet (58% lard) for the entire period of the study. Compared to normal chow (NC, Harlan-Tekland #8604, WI) fed animals the HF fed mice develop several features of metabolic syndrome such as, hypertriglyceridemia, hyperinsulinemia and mild hyperglycemia, as early as two weeks, on this diet. […] This model was used to evaluate the pharmacological effects of a compound of the invention selected from the group consisting of Examples 1-141 (referred to for the purposes of this study as “Compound (I)”) in mitigating several features of HFD induced metabolic syndrome in rodents.
C57B1/6j mice (n=5) were fed ad libitum with either the HFD (58% fat) or NC (5%) diet for 3 weeks prior to start of experiment, and throughout the course of the experiment (45 days). Starting on Day 1, mice were dosed BID with either Compound (I)+vehicle, vehicle alone, or GW501516, a known PPARδ modulator in clinical development by Glaxo-Wellcome, for the entire period of the study. Animals were the assessed for body weight gain, food intake, triglyceride (TG), insulin, and glucose levels under fasting and postprandial (PP) conditions. Animals were weighed twice weekly in the morning to determine body weight gain. Plasma or serum was separated from whole blood (Sarstedt) and TG levels were assayed with a TG kit (Thermo Electron Corporation, TX). Plasma insulin levels were assayed using the ultrasensitive mouse Insulin ELISA immunoassay (American Laboratory Products Company). Total cholesterol, HDLc and LDLc was measured to evaluate pharmacological efficacy at various time points during the study and serum transaminases were measured to evaluate any potential toxicity of the compound. These measurements were performed with a chemistry analyzer at Labcorp of America, NC.

## Cc1cc(SCc2sc(-c3ccc(C(F)(F)F)cc3)nc2C)ccc1OCC(=O)O [GW516]
  % change in body weight (d0 vs d40): 10.6%
  Insulin: 1.3 ± 0.3 ng/mL
  TG: 268 ± 56 mg/dL
